PMC10354055, “An optimized Nurr1 agonist provides disease-modifying effects in Parkinson’s disease models” (Nature Communications, 2023)
Several values for one entry are separate records, joined by “and”; a condition that tells them apart may be missing. Identical values can stand only once. Like-named read-outs stand apart in the source and are kept apart here.

Key:
N27-A cells = conditions: for LDH release (%): Fig. 2b, MPP+, CQ 100 µM, 4A7C-301 1 µM; for MPP+-induced cytotoxicity (in words): N27-A and MN9D cells, dose-dependent
Protocol: SK-N-BE(2)C human neuroblastoma, BV2 mouse microglia (ATCC), HeLa and MN9D cell lines were cultured in Dulbecco’s Modified Eagle Medium (DMEM) supplemented with 10% fetal bovine serum (FBS) and 100 U /ml penicillin and 100 μg /ml streptomycin. The murine MN9D dopaminergic cell line was kindly provided by Drs. Michael Zigmond and Juliann Jaumotte from the University of Pittsburgh. The N27-A rat dopaminergic cell line was kindly provided by Dr. Curt Freed from the University of Colorado School of Medicine. […] For transactivity assay, SK-N-BE(2)C and N27-A cell lines were transfected with pCMV-fNurr1, pGAL-Nurr1(LBD), pGAL-Nor1(LBD) or pGAL-Nur77(LBD) and reporter construct (p4xNL3-Luc for fNurr1 or p8xUAS-Luc for LBD constructs). pRSV-β-gal was co-transfected as an internal control. Cells were lysed in a lysis buffer (25 mM Tris-phosphate (pH 7.8), 2 mM DTT, 2 mM DCTA (1,2-diaminocyclohexane-N,N,N′,N′-tetraacetic acid), 10% glycerol, and 1% Triton X-100) 24 h after transfection, followed by adding firefly luciferase substrate for luminescence detection measured by a luminometer plate reader (SpectraMax®; Molecular device). Nurr1 transactivity was normalized to β-galactosidase activity. […] For Nurr1 stability determination, MN9D cells were incubated with MPP^+ (0.5 mM) for 2, 4, 8, 16, 24, and 32 h, or were transduced with lentivirus expressing GFP only or αSyn (wild-type or A53T) then harvested 24, 48 and 72 h after transduction. For autophagolysosome (APL) formation assay, HeLa and N27-A cells were transfected with mRFP-GFP-LC3 (Addgene) using Lipofectamine 2000 (Invitrogen). The medium was changed with starvation medium (Earle’s Balanced Salt Solution; EBSS) 24 h after transfection for autophagy induction.
Cells were transfected with Nurr1 subcloned into pcDNA3.1 vector[23] for Nurr1 overexpression (OE). […] Nurr1 OE or KD by transfection was analyzed by Western blot.
Cellular oxidative stress was detected using the DCFDA Cellular ROS Assay Kit (Abcam) according to the manufacturer’s protocol. Briefly, cells seeded in black clear bottom 96 well plate were stained with DCFDA solution (20 µM) for 45 min at 37 °C. […] Cytotoxicity was determined by measuring lactate dehydrogenase (LDH) release into the culture medium using a LDH cytotoxicity detection kit (Roche)[33]. Absorbance was measured at 490 nm with a microplate reader and cytotoxicity was calculated as a percentage (%) relative to 1% TritonX-100 control. Cell viability was determined using 3-(4,5-dimethylthiazol-2-yl)-2,5-diphenyltetrazolium bromide (MTT) as previously described. Briefly, cells were incubated with 5 mg/ml of MTT (Sigma-Aldrich) solution for 3.5 h at 37 °C. MTT formazan crystals were dissolved in 10 times the volume of MTT solvent (4 mM HCl and 0.1% Nonidet P-40 in isopropanol) and the absorbance from the generated blue formazan was measured at 570 nm after 15 min incubation at room temperature. Cell viability was calculated as a percentage (%) of MTT reduction relative to vehicle control.

MPTP-induced male mice = assay: IHC of Iba-1+ microglia in STR and SNpc, MPTP-induced mice; type: in vivo, mouse; conditions: for Iba-1+ cells in STR (% of control): Figure 4m; for Iba-1+ cells in STR (% of control) / Iba-1+ cells in SNpc (% of control): MPTP-induced mice, individual animal values; for Iba-1+ cells in SNpc (% of control): Figure 4n
Protocol: MPTP (Sigma-Aldrich) was intraperitoneally (i.p.) injected (30 mg/kg) for 5 days (Day 1-5). […] To test dyskinetic involuntary behavior, an L-DOPA injected group was included, which received 50 mg/kg of L-DOPA and 15 mg/kg of benserazide (Sigma-Aldrich) (i.p.) for 16 days (Day 1–16). All compounds were administered 6 h post-MPTP injection to avoid any effect of compounds on the MPTP metabolism in the brain. Motor and non-motor related behavior tests were performed on the following days as described in Fig. 4a in an assessor- and observer-blinded fashion. Pre-training and baseline setup for motor-related behaviors were performed 3 days prior to the injections. Mice were sacrificed and subjected to immunohistochemistry. Mice were housed at the Animal Care Facilities of McLean Hospital under a 12-h light/12-h dark cycle, ambient temperature and humidity. Animals were handled in accordance with McLean Hospital’s Institutional Animal Care and Use Committee (Protocol #: 2015N000002) and followed National Institutes of Health guidelines.
Images were acquired using a KEYENCE microscope and quantified as the number or optical density of immunoreactive cells using ImageJ software.
The numbers of TH^+ DA neurons, NeuN^+ neurons, pS129 αSyn^+ cells in the SN and Iba-1^+ microglia in the SN and striatum were stereologically counted in six coronal sections (30 µm thickness) taken every 6th section (180 µm intervals) for each brain. The boundaries of the SN and striatum were delimited at low magnification (4X) to estimate each total area. Immunoreactive cells were counted with images taken at high magnification (×40) by a single blinded investigator. The group mean of the total number of immunoreactive cells from each brain was transformed as percentage of the number in the control group (%). For AAV-αSyn-induced mice, the group mean of the total number of cells in the ipsilateral side was transformed as a percentage of that observed in the contralateral side.

Structure (SMILES): CCN(CC)CCCC(C)Nc1ccnc2cc(Cl)ccc12 (centres unmarked) [CQ, chloroquine]
- LDH release (%) (N27-A cells; Control): 38.0191% and 38.0584% and 38.4906% and 38.2156%
- LDH release (%) (N27-A cells; Nurr1 KD): 55.7041% and 55.6609% and 55.7395% and 55.7788%
- LDH release (%) (N27-A cells; Nurr1 OE): 24% and 23.9568% and 23.9529% and 23.9254%
- MPP+-induced cytotoxicity (in words) (N27-A cells): significantly decreased
- Iba-1+ cells in STR (% of control) (MPTP-induced male mice): 156.51 % of control and 147.74 % of control and 143.13 % of control and 144.76 % of control and 151.54 % of control and 162.57 % of control and 147.11 % of control and 149.46 % of control
- Iba-1+ cells in SNpc (% of control) (MPTP-induced male mice): 165.17 % of control and 275.28 % of control and 277.25 % of control and 239.89 % of control and 248.74 % of control and 269.38 % of control and 278.23 % of control

Structure (SMILES): CCN1CCN(c2cc(N3CCN(CC)CC3)nc(NCCNc3ccnc4cc(Cl)ccc34)n2)CC1 [4A7C-301, N^1-(4,6-bis(4-ethylpiperazin-1-yl)pyrimidin-2-yl)-N^2-(7-chloroquinolin-4-yl)ethane-1,2-diamine]
- LDH release (%) (N27-A cells; Control): 36.8915% and 36.4082% and 36.6047% and 36.8443%
- LDH release (%) (N27-A cells; Nurr1 KD): 55.7866% and 55.7395% and 55.4251% and 55.8102%
- LDH release (%) (N27-A cells; Nurr1 OE): 22.7388% and 23.725% and 22.6956% and 22.8802%
- MPP+-induced cytotoxicity (in words) (N27-A cells): significantly decreased
- concentration of maximal efficiency, times lower than CQ (N27-A cells; N27-A cells, MPP+-induced cytotoxicity): ~ 20 times
- Iba-1+ cells in STR (% of control) (MPTP-induced male mice): 125.5 % of control and 139.6 % of control and 120.61 % of control and 117.09 % of control and 138.52 % of control and 80.29 % of control and 135.9 % of control
- Iba-1+ cells in SNpc (% of control) (MPTP-induced male mice): 160.25 % of control and 167.13 % of control and 152.39 % of control and 127.81 % of control and 217.28 % of control and 189.75 % of control and 198.6 % of control
- Iba-1+ microglia in STR and SN (in words) (MPTP-induced male mice; MPTP mice): markedly reduced
